# Assay results: patent US20260118345A1, “METHOD OF EVALUATING INTERCELLULAR INTERACTIONS IN NEUROINFLAMMATION” (FUJIFILM Corporation, priority 2023, published 2026)
# How the values were obtained:
# Format in all cases: cell-based, human
# STAT1 [1] = assay: STAT1 localization by immunostaining after LPS stimulation, three-cell-type co-culture of neurons, astrocytes and microglia; details: LPS 100 ng/mL
# Description: Microglia were specifically stimulated by adding LPS (FUJIFILM Wako Pure Chemical Corporation, 124-05151) at 100 ng/mL to the two-dimensional co-culture that had been cultured for 4 weeks. The cells were fixed by treating, for 30 minutes, with a formaldehyde solution (FUJIFILM Wako Pure Chemical Corporation, 061-00416) diluted 10-fold with PBS(−) (FUJIFILM Wako Pure Chemical Corporation, 166-23555) without treatment, and at 0.5 hours, 1 hour, 3 hours, 6 hours, and 24 hours after the treatment. […]
# The next day, the cells were washed with PBS (−), then as a secondary antibody reaction, treated with Donkey anti-goat Alexa Fluor (registered trademark) 488 (Thermo Fisher Scientific, A11055) diluted 1000-fold, Donkey anti-rabbit Alexa Fluor (registered trademark) 594 (Thermo Fisher Scientific, A32754) diluted 1000-fold, and Hoechst (registered trademark) 33342 (Dojindo, 346-07951) diluted 1000-fold as a secondary antibody reaction, and allowed to stand at room temperature for 60 minutes. After washing with PBS (−), the cells were imaged with a fluorescence microscope (Nikon, ECLIPSE Ti) to acquire an image. […]
# STAT1 [2] = assay: STAT1 localization after LPS stimulation, two-cell-type co-culture of nerve and astrocytes; details: co-culture without microglia, all time points
# [3] = tested on: two-cell-type co-culture of neurons and astrocytes; assay: Neural activity by calcium imaging (BPM), two-dimensional two-cell-type co-culture of neurons and astrocytes; details: 24 hours after stimulation (TNF-α 7.5 ng/mL or LPS 100 ng/mL)
# Description: Matrigel basement membrane matrix (Corning, 356234) diluted 120-fold with DMEM/F12 (Life technologies, 11320-033) was added to a 96-well plate at 65 μL/well and allowed to stand at 4° C. After 24 hours, the culture medium was replaced with a progenitor cell culture medium and used. Astrocyte precursor cells (XCell Science, XCS-AP-001-1V) were seeded in a 96-well plate at a density of 6×10^4 cells/well, cultured under the conditions of 37° C. and 5% CO2, after culture medium was replaced with the differentiation induction culture medium, further cultured for 5 days to differentiate into astrocytes. […] After centrifugation, the supernatant was removed, the cells were suspended in 1 mL of the co-culture medium, and the number of cells was counted. […] In addition, at 24 hours after the stimulation with LPS or TNF-α, the neural activity was evaluated by calcium imaging. […] After incubating for 1 hour under conditions of 37° C. and 5% CO2, the solution was replaced with a warmed (37° C.) recording solution, and the fluorescence was measured for 10 minutes with FDSS (registered trademark)/μcell (Hamamatsu Photonics K. K., C13299). The neural activity was evaluated by quantifying the number of peaks of calcium oscillation using Wave Checker Software (Hamamatsu Photonics K. K.).
substance,measurement,setting,value
lipopolysaccharide [LPS],STAT1 localized in the nucleus,STAT1 [1]; 1 hour and 3 hours after the LPS stimulation,some cells
same,STAT1 localized in the nucleus,STAT1 [1]; 6 hours after the stimulation,many cells
same,nuclear translocation of STAT1,STAT1 [2],not observed at any time
same,BPM (the number of peaks of calcium oscillation per minute) as compared with the control,[3],no change
